Series [1] can be described thus: Apparent permeability in human Caco2 cells. Type of series: ADME, cell-based, Caco-2. Background: Caco-2 monolayers are a common model of the intestinal barrier.
The nature of series [2]: Apparent permeability in MDCK cells. It is filed as ADME, cell-based, Canis lupus familiaris. The following applies: dog.
Series [3] addresses Voltage-gated inwardly rectifying potassium channel KCNH2 (Homo sapiens, UniProt Q12809). The experiment in a line: Inhibition of human ERG.
Series [4] addresses T1, Histone deacetylase 1/2/3/6 (Homo sapiens, UniProt Q13547+O15379+Q9UBN7+Q92769). The experiment in a line: Inhibition of HDAC1/2/3/6 in human A2780 cells using Boc-Lys(epsilon-Ac)-AMC as substrate preincubated for 18 hrs followed by substrate addition measured after 3 hrs by fluorescence assay. Type of series: cell-based.
Series [5] concerns the target T1, Histone deacetylase 1/2/3/6. Kind of series: Inhibition of HDAC1/2/3/6 in human A2780cisR cells using Boc-Lys(epsilon-Ac)-AMC as substrate preincubated for 18 hrs followed by substrate addition measured after 3 hrs by fluorescence assay. Type of series: cell-based.
Series [6] has the same target. The experiment in a line: Inhibition of HDAC1/2/3/6 in human Cal27 cells using Boc-Lys(epsilon-Ac)-AMC as substrate preincubated for 18 hrs followed by substrate addition measured after 3 hrs by fluorescence assay. It is filed as cell-based.
The test system of the next series is A2780cisR. Kind of series: Cytotoxicity against human A2780cisR cells assessed as cell survival after 72 hrs by MTT assay. Type of series: functional, cell-based. (Formazan colour is commonly taken as a measure of viable cells.)
For the next series, the system named is A2780. The experiment in a line: Cytotoxicity against human A2780 cells assessed as cell survival after 72 hrs by MTT assay. Particulars: A2780, 72 h. It is filed as functional, cell-based.
Series [7] relates to CAL-27. Kind of series: Cytotoxicity against human CAL27 cells assessed as cell survival after 72 hrs by MTT assay. It is filed as functional, cell-based. Particulars: CAL-27, 72 h.
The target in another series is Histone deacetylase 1 (Homo sapiens, UniProt Q13547). The experiment in a line: Inhibition of C-terminal FLAG/His-tagged recombinant human HDAC1 expressed in baculovirus infected Sf9 insect cells using Z-(Ac)Lys-AMC as substrate measured after 90 mins by fluorescence assay.
The target in series [8] is T2, Protein deacetylase HDAC6 (Homo sapiens, UniProt Q9UBN7).
T2 sequence (Q9UBN7 whole entry): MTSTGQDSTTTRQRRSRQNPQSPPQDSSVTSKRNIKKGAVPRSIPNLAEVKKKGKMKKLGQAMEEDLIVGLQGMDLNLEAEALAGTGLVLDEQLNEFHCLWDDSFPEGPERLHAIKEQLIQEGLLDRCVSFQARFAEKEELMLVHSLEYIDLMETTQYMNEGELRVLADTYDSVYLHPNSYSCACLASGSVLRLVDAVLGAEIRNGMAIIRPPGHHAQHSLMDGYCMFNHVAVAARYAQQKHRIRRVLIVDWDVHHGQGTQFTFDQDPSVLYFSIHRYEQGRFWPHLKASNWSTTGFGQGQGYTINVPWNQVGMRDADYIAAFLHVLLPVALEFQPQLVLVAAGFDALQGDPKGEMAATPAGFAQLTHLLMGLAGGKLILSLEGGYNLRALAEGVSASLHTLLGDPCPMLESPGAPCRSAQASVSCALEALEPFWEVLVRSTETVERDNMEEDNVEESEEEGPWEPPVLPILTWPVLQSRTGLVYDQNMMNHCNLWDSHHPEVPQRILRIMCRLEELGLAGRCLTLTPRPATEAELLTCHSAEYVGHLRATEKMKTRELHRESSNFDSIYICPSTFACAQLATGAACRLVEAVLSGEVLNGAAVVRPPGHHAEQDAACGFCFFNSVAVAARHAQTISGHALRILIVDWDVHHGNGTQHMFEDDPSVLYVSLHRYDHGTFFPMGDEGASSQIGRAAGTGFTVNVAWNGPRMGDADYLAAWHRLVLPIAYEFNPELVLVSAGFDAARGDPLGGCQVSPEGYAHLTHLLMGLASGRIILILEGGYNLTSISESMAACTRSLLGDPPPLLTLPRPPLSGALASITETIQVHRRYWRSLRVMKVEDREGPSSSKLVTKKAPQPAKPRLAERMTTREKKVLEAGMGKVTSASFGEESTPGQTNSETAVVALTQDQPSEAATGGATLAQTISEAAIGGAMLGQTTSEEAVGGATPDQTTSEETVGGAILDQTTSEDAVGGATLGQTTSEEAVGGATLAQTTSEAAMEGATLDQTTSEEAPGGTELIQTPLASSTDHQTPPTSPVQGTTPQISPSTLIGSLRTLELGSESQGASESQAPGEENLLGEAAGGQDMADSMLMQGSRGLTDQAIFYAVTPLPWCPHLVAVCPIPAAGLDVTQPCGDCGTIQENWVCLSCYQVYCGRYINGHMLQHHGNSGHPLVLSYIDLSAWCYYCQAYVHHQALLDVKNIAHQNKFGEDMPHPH
Kind of series: Inhibition of N-terminal GST-tagged recombinant human HDAC6 expressed in baculovirus infected Sf9 insect cells using Z-(Ac)Lys-AMC as substrate measured after 90 mins by fluorescence assay.

Series [9] addresses Histone deacetylase 3/Nuclear receptor corepressor 2 (HDAC3/NCoR2) (Homo sapiens, UniProt O15379). Kind of series: Inhibition of full length human recombinant C-terminal His-tagged HDAC3/NcoR2 expressed in baculovirus infected Sf9 insect cells using Boc-Lys(epsilon-Ac)-AMC as substrate measured after 90 mins by fluorescence assay.
A further series deals with Histone deacetylase 2 (Homo sapiens, UniProt Q92769). The experiment in a line: Inhibition of full length human recombinant C-terminal FLAG-tagged HDAC2 expressed in baculovirus infected Sf9 insect cells using Boc-Lys(epsilon-Ac)-AMC as substrate measured after 90 mins by fluorescence assay. Type of series: cell-based.
The target in the next series is T3, Histone deacetylase 8 (Homo sapiens, UniProt Q9BY41).
T3 sequence (Q9BY41 whole entry): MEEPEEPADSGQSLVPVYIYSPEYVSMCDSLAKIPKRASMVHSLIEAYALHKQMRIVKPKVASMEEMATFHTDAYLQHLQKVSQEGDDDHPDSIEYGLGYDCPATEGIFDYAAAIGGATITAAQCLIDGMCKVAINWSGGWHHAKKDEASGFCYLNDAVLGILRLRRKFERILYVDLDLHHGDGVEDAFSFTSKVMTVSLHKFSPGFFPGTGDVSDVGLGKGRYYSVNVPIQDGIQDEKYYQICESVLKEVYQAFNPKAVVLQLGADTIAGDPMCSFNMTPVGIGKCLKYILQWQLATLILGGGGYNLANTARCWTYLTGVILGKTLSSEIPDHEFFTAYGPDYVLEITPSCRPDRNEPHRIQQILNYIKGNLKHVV
The experiment in a line: Inhibition of human recombinant HDAC8 expressed in Escherichia coli using Z-L-Lys(epsilon-trifluoroacetyl)-AMC as substrate measured after 90 mins by fluorescence assay.

For series [10], the target named is T1, Histone deacetylase 1/2/3/6. The experiment in a line: Inhibition of HDAC1/2/3/6 in human Cal27 cells assessed as potentiation of cisplatin-induced apoptosis at 250 to 500 nM preincubated for 48 hrs followed by cisplatin addition by flow cytomertry assay. It is filed as cell-based.
Series [11] shares this target. The experiment in a line: Inhibition of HDAC1/2/3/6 in human Cal27CisR cells assessed as potentiation of cisplatin-induced apoptosis at 250 to 500 nM preincubated for 48 hrs followed by cisplatin addition by flow cytomertry assay. Type of series: cell-based.
The subject of series [12] is CAL-27. Kind of series: Induction of apoptosis in human CAL27 cells at 250 to 500 nM incubated for 48 hrs by flow cytometry assay. Particulars: cal-27, 48 h, 0.5 µM. Type of series: cell-based. For orientation: Flow cytometry measures light scatter and fluorescence of single cells or particles in a stream.
Series [13] in a line: Induction of apoptosis in human Cal27CisR cells at 250 to 500 nM incubated for 48 hrs by flow cytometry assay. It is filed as cell-based. The following applies: 0.5 µM.
Series [14] concerns the target T1, Histone deacetylase 1/2/3/6. The experiment in a line: Inhibition of HDAC1/2/3/6 in human Cal27CisR cells using Boc-Lys(epsilon-Ac)-AMC as substrate preincubated for 18 hrs followed by substrate addition measured after 3 hrs by fluorescence assay. It is filed as cell-based.
The nature of series [15]: Cytotoxicity against human Cal27CisR cells assessed as cell survival after 72 hrs by MTT assay. It is filed as functional, cell-based.
Series [16] addresses T4, Protein deacetylase HDAC6 (Homo sapiens) (UniProt Q9UBN7).
T4 sequence (whole entry): T2 sequence (Q9UBN7 whole entry)
Kind of series: Inhibition of HDAC6 in human Cal27 cells assessed as increase in acetylation of alpha-tubulin at 10 uM after 24 hrs by Western blot method. Type of series: cell-based.

In series [17] the target is T4, Protein deacetylase HDAC6 (Homo sapiens). Kind of series: Inhibition of HDAC6 in human Cal27CisR cells assessed as increase in acetylation of alpha-tubulin at 10 uM after 24 hrs by Western blot method. Type of series: cell-based.
For series [18], the target named is T5, Histone deacetylase 1/2/3 (Homo sapiens) (UniProt Q13547+O15379+Q92769). The experiment in a line: Inhibition of HDAC1/2/3 in human Cal27CisR cells assessed as increase in acetylation of histone H3 at 10 uM after 24 hrs by Western blot method. Type of series: cell-based.
Series [19] concerns the target T5, Histone deacetylase 1/2/3 (Homo sapiens). The experiment in a line: Inhibition of HDAC1/2/3 in human Cal27 cells assessed as increase in acetylation of histone H3 at 10 uM after 24 hrs by Western blot method. It is filed as cell-based.
For series [20], the target named is T1, Histone deacetylase 1/2/3/6. The experiment in a line: Inhibition of HDAC1/2/3/6 in human CAL27 cells assessed as potentiation of cisplatin-induced cytotoxicity preincubated for 48 hrs followed by cisplatin addition measured after 72 hrs by MTT assay relative to control. Type of series: cell-based.
Series [21] has the same target. Kind of series: Inhibition of HDAC1/2/3/6 in human Cal27CisR cells assessed as potentiation of cisplatin-induced cytotoxicity preincubated for 48 hrs followed by cisplatin addition measured after 72 hrs by MTT assay relative to control. Type of series: cell-based.

These results are taken from ChEMBL document CHEMBL4014348, “Design, Multicomponent Synthesis, and Anticancer Activity of a Focused Histone Deacetylase (HDAC) Inhibitor Library with Peptoid-Based Cap Groups” (J Med Chem, 2017).

Several values for one entry are separate records, joined by “and”; a condition that tells them apart may be missing. Equal values may be shown once. Activity calls are given as the source filed them. The calls are words filed in the database; no cut-off is given here.

Sequence of Histone deacetylase 2 (Q92769 whole entry): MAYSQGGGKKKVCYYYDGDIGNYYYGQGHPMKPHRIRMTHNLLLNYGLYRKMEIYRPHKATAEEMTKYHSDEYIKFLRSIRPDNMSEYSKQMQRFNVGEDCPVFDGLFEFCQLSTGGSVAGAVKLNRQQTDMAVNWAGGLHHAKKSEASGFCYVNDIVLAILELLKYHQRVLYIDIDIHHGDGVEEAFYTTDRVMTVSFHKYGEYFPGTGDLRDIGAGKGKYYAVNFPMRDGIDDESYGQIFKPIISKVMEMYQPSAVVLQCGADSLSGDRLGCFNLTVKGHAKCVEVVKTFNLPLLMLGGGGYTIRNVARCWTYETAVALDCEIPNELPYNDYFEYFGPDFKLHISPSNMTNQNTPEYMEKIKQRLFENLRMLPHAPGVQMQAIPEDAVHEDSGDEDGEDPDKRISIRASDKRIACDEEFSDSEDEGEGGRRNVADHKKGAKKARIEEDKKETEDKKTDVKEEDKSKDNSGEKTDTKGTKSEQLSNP
Sequence of Histone deacetylase 3/Nuclear receptor corepressor 2 (HDAC3/NCoR2) (O15379 whole entry): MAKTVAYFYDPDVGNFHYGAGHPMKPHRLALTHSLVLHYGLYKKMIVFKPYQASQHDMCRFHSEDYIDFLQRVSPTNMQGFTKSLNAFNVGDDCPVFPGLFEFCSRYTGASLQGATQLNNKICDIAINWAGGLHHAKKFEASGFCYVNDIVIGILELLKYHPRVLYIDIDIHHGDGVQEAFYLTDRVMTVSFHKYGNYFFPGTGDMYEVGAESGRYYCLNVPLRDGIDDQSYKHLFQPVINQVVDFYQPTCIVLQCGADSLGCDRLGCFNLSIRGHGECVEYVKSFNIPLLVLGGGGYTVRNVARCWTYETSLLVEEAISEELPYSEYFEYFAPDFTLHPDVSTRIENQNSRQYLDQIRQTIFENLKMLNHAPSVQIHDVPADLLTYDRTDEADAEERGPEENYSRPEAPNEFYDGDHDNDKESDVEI
Sequence of Histone deacetylase 3/Nuclear receptor corepressor 2 (HDAC3/NCoR2) (Q9Y618 whole entry, further chain): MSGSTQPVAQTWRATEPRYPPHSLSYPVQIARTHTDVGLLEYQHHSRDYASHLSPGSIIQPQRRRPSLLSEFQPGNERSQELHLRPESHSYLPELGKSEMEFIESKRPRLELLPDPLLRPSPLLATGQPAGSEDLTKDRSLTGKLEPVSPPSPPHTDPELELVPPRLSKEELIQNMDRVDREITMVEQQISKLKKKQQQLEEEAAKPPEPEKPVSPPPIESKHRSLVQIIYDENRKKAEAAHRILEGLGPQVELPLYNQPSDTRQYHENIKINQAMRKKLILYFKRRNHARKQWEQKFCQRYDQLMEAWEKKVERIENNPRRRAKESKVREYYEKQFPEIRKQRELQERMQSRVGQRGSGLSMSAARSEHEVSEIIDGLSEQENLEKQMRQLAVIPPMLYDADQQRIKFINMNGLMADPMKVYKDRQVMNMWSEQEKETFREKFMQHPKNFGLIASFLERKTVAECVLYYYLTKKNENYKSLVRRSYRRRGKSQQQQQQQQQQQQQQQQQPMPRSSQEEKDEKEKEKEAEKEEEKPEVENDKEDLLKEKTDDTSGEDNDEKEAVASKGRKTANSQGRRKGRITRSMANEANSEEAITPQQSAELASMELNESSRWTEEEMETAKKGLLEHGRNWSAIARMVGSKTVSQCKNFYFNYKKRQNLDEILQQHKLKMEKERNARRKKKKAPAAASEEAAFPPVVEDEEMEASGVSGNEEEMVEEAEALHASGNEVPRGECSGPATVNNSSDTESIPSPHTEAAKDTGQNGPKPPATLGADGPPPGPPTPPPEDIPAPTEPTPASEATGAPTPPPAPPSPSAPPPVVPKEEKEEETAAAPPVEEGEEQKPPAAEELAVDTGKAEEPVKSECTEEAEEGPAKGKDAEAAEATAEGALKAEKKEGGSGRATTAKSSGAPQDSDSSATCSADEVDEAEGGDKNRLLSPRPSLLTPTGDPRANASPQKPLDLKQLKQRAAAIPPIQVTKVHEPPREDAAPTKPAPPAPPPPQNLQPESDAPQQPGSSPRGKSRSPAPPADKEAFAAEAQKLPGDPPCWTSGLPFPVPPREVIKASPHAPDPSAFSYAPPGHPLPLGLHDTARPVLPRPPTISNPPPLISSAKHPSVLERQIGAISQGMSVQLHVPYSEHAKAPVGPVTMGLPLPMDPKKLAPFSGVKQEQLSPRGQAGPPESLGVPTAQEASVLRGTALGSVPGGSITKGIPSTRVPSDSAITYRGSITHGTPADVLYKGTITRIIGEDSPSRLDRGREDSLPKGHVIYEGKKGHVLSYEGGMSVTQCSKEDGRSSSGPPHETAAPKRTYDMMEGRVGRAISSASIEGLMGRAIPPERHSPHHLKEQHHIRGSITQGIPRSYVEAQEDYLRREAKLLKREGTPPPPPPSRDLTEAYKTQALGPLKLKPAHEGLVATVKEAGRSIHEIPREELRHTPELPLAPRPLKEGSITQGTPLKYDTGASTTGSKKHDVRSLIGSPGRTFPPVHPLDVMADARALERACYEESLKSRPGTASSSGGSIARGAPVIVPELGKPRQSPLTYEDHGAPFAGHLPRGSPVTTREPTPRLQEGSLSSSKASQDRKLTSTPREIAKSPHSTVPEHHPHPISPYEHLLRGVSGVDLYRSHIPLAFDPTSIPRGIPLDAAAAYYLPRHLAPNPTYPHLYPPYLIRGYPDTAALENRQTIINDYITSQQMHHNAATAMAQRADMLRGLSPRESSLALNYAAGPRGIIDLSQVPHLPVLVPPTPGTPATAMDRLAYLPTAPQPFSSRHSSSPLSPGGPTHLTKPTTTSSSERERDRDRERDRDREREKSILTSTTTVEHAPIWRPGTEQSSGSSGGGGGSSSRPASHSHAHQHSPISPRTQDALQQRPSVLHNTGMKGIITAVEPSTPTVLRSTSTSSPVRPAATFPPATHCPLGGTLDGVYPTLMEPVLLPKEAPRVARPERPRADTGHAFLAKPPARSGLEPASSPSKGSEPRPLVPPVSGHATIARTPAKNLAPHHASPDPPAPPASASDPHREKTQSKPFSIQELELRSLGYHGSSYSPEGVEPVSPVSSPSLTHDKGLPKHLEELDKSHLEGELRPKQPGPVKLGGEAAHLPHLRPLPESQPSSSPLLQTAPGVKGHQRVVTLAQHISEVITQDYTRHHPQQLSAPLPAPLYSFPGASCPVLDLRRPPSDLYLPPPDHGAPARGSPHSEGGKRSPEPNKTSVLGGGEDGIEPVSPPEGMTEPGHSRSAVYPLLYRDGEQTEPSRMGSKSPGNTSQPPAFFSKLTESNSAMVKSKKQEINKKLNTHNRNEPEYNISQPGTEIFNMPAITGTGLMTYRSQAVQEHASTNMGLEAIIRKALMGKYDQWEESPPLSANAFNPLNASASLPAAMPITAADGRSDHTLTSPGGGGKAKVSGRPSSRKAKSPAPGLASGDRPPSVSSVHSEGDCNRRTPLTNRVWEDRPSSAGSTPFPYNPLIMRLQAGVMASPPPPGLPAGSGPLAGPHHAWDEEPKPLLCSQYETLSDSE
T1 sequence (O15379 whole entry, looked up, one chain of several): as the sequence (O15379 whole entry) above
T1 sequence (Q13547 whole entry, looked up, one chain of several): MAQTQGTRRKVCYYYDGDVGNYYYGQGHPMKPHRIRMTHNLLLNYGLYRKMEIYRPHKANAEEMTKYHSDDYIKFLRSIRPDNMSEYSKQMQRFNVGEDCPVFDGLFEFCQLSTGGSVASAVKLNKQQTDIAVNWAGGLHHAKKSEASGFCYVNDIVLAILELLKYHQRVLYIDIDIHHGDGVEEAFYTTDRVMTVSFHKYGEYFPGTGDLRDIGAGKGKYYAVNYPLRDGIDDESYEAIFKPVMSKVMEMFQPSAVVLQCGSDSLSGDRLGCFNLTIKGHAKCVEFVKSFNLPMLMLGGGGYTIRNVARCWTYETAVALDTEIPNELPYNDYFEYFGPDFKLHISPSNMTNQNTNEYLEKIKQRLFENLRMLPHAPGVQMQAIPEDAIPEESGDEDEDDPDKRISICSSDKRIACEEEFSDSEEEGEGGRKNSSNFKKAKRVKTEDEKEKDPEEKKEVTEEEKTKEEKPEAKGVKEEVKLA
T1 sequence (Q92769 whole entry, looked up, one chain of several): as the sequence (Q92769 whole entry) above
Sequence of Histone deacetylase 1 (Q13547 whole entry): as the sequence (Q13547 whole entry, looked up, one chain of several) above

As for `CN(C)c1ccc(C(=O)N(CC(=O)NC2CCCCC2)Cc2ccc(C(=O)NO)cc2)cc1`, the Papp in series [1] (Caco-2, read-out: Papp) came out at 9.8 ×10⁻⁶ cm/s; in series [1] (caco-2) it was 10.1 ×10⁻⁶ cm/s; in [2] (MDCK, read-out: Papp) it was 6.6 ×10⁻⁶ cm/s; in series [2] (mdck), 5.8 ×10⁻⁶ cm/s. In [3], the IC50 is 21500 nM and 52100 nM.

As to `O=C(CCCCCN1C(=O)c2ccccc2N(Cc2ccccc2)C(=O)[C@@H]1Cc1ccccc1)NO`, the Papp in series [1] (Caco-2, read-out: Papp) is 14.4 ×10⁻⁶ cm/s; in series [2] (MDCK, read-out: Papp), 10.9 ×10⁻⁶ cm/s. Moreover, the IC50 in series [3] was 2230 nM.

With `CN(C)c1ccc(C(=O)N(CCCCCC(=O)NO)CC(=O)NCc2ccccc2)cc1`, the 50% inhibitory concentration (IC50) in [4] came out at 480 nM; in series [5], 320 nM; in series [6] it was 270 nM; in the series with A2780cisR, 1620 nM; in the series on A2780, 470 nM; with CAL-27 [7], 440 nM. For the same molecule, the IC50 on Histone deacetylase 1 is 25 nM; in [8], 281 nM; in series [9] it was 6.5 nM; on Histone deacetylase 2, 66 nM; at Histone deacetylase 8, 2750 nM; in series [14], 350 nM. In addition, in [15], the IC50 was found to be 1130 nM. The Papp in series [1] (caco-2) was 8.2 ×10⁻⁶ cm/s and 20 ×10⁻⁶ cm/s; in series [2] (MDCK, read-out: Papp) it was 7.3 ×10⁻⁶ cm/s; in [2] (mdck) it was 10.6 ×10⁻⁶ cm/s. Also, the inhibition result in [10], in series [11], in series [16], in [17], in series [18] and in series [19] was “Active” throughout. In addition, the Activity entry (in the series with CAL-27 [12]; in series [13]) was “Non-Toxic” in each case. In addition, the inhibition result in series [20] and in series [21] was “Dose-dependent effect” in each case.

In the case of `Cc1cc(C)cc(C(=O)N(CCCCCC(=O)NO)CC(=O)NCc2ccccc2)c1`, the IC50 in series [4] was 630 nM; in [5], 350 nM; in series [6] it was 370 nM; with A2780cisR, 1850 nM; in the series with A2780, 330 nM; in the series with CAL-27 [7] it was 700 nM. For the same molecule, the IC50 on Histone deacetylase 1 was 24.7 nM; in [8], 135 nM; in series [9], 26 nM; at Histone deacetylase 2, 61 nM; at Histone deacetylase 8, 7330 nM; in series [14], 410 nM. Also, in [15], the IC50 stood at 1410 nM.

With `Cc1cc(C)cc(C(=O)N(CCCCCC(=O)NO)CC(=O)NC2CCCCC2)c1`, the IC50 in series [4] was 880 nM; in series [5], 930 nM; in series [6] it was 710 nM; in the series with A2780cisR, 3810 nM; in the series with A2780, 160 nM; in the series with CAL-27 [7], 1130 nM. The IC50 was 27.4 nM on Histone deacetylase 1; 214 nM in series [8]; 60 nM in series [9]; 84 nM on Histone deacetylase 2; 7400 nM at Histone deacetylase 8; 640 nM in series [14]. For the same molecule, in series [15], the IC50 came to 1140 nM.

Broadly, the Papp is a coefficient for how fast a substance crosses the barrier. Usually IC50 stands for the midpoint of a concentration-inhibition curve.
